Test system: not listed separately
Assay: Prodrug in vitro metabolism, rat plasma
Assay type: in vitro ADME
Settings: 2.0 μM substrate, no cofactors, 37° C.
Procedure: (§1) The stabilities of prodrugs were evaluated in one or more in vitro systems using a variety of preparations following methods known in the art. Tissues and/or preparations were obtained from commercial sources (e.g., Pel-Freez Biologicals, Rogers, Ark., or GenTest Corporation, Woburn, Mass.). Experimental conditions used for the in vitro studies are described in Table 1. Each preparation was incubated with test compound at 37° C. for one hour. Aliquots (50 μL) were removed at 0, 30, and 60 min and quenched with 0.1% trifluoroacetic acid in acetonitrile. Samples were then centrifuged and analyzed by LC/MS/MS. Stability of prodrugs towards specific enzymes (e.g., peptidases, etc.) were also assessed in vitro by incubation with the purified enzyme: […]

Percent of Prodrug Remaining after 60 min. [%]	Compound
40	CC(OC(=O)NCCCP(C)(=O)O)OC(=O)C(C)C (stereo not shown) [Compound 111, 3-{[1-Isobutanoyloxyethoxy]carbonylamino}propyl Methylphosphinic Acid]
100	CP(=O)(O)CCCNC(=O)OCOC(=O)c1ccccc1 [Compound 195, 3-{[Benzoyloxymethoxy]carbonylamino}propyl Methylphosphinic Acid]

Continued, molecule first:

Compound	Percent of Prodrug Remaining after 60 min. [%]
CC(OC(=O)NCCCP(C)(=O)O)OC(=O)C1CCCCC1 (stereo not shown) [Compound 114, 3-{[1-Cyclohexanoyloxyethoxy]carbonylamino}propyl Methylphosphinic Acid]	98
CC(C)C(=O)OCOC(=O)NCCCP(C)(=O)O [Compound 115, 3-{[Isobutanoyloxymethoxy]carbonylamino}propyl Methylphosphinic Acid]	7
CC(C)C(=O)OC(OC(=O)NCCCP(C)(=O)O)C(C)C (stereo not shown) [Compound 194, 3-{[1-Isobutanoyloxyisobutoxy]carbonylamino}propyl Methylphosphinic Acid]	38

Test system: not listed separately
Assay: Prodrug in vitro metabolism, human plasma
Assay type: in vitro ADME
Settings: 2.0 μM substrate, no cofactors, 37° C.
Procedure: as §1

Percent of Prodrug Remaining after 60 min. [%]	Compound
84	CC(OC(=O)NCCCP(C)(=O)O)OC(=O)C(C)C (stereo not shown) [Compound 111, 3-{[1-Isobutanoyloxyethoxy]carbonylamino}propyl Methylphosphinic Acid]
78	CP(=O)(O)CCCNC(=O)OCOC(=O)c1ccccc1 [Compound 195, 3-{[Benzoyloxymethoxy]carbonylamino}propyl Methylphosphinic Acid]

More lines, now with the values behind:

Compound	Percent of Prodrug Remaining after 60 min. [%]
CC(OC(=O)NCCCP(C)(=O)O)OC(=O)C1CCCCC1 (stereo not shown) [Compound 114, 3-{[1-Cyclohexanoyloxyethoxy]carbonylamino}propyl Methylphosphinic Acid]	97
CC(C)C(=O)OCOC(=O)NCCCP(C)(=O)O [Compound 115, 3-{[Isobutanoyloxymethoxy]carbonylamino}propyl Methylphosphinic Acid]	30
CC(C)C(=O)OC(OC(=O)NCCCP(C)(=O)O)C(C)C (stereo not shown) [Compound 194, 3-{[1-Isobutanoyloxyisobutoxy]carbonylamino}propyl Methylphosphinic Acid]	77

Test system: pancreatin
Assay: Pancreatin stability
Assay type: in vitro ADME, porcine
Settings: 1% (w/v) pancreatin, 5 μM prodrug, pH 7.5, 37° C.
Procedure: The stabilities of prodrugs were evaluated in one or more in vitro systems using a variety of preparations following methods known in the art. Tissues and/or preparations were obtained from commercial sources (e.g., Pel-Freez Biologicals, Rogers, Ark., or GenTest Corporation, Woburn, Mass.). Experimental conditions used for the in vitro studies are described in Table 1. Each preparation was incubated with test compound at 37° C. for one hour. Aliquots (50 μL) were removed at 0, 30, and 60 min and quenched with 0.1% trifluoroacetic acid in acetonitrile. Samples were then centrifuged and analyzed by LC/MS/MS. Stability of prodrugs towards specific enzymes (e.g., peptidases, etc.) were also assessed in vitro by incubation with the purified enzyme:
Pancreatin Stability: Stability studies were conducted by incubating prodrug (5 μM) with 1% (w/v) pancreatin (Sigma, P-1625, from porcine pancreas) in 0.025 M Tris buffer containing 0.5 M NaCl (pH 7.5) at 37° C. for 60 min. The reaction was stopped by addition of 2 volumes of methanol. After centrifugation at 14,000 rpm for 10 min, the supernatant was removed and analyzed by LC/MS/MS.

Percent of Prodrug Remaining after 60 min. [%]	Compound
79	CC(OC(=O)NCCCP(C)(=O)O)OC(=O)C(C)C (stereo not shown) [Compound 111, 3-{[1-Isobutanoyloxyethoxy]carbonylamino}propyl Methylphosphinic Acid]
62	CP(=O)(O)CCCNC(=O)OCOC(=O)c1ccccc1 [Compound 195, 3-{[Benzoyloxymethoxy]carbonylamino}propyl Methylphosphinic Acid]

The remaining lines, values behind:

Compound	Percent of Prodrug Remaining after 60 min. [%]
CC(OC(=O)NCCCP(C)(=O)O)OC(=O)C1CCCCC1 (stereo not shown) [Compound 114, 3-{[1-Cyclohexanoyloxyethoxy]carbonylamino}propyl Methylphosphinic Acid]	24
CC(C)C(=O)OCOC(=O)NCCCP(C)(=O)O [Compound 115, 3-{[Isobutanoyloxymethoxy]carbonylamino}propyl Methylphosphinic Acid]	20
CC(C)C(=O)OC(OC(=O)NCCCP(C)(=O)O)C(C)C (stereo not shown) [Compound 194, 3-{[1-Isobutanoyloxyisobutoxy]carbonylamino}propyl Methylphosphinic Acid]	91

Test system: not given
Assay: not given
Settings: animal models (Merino et al.); cited from earlier work

Compound	absorption following administration into the colon
NCC(CC(=O)O)c1ccc(Cl)cc1 (racemic) [Baclofen, (±)-4-Amino-3-(4-chlorophenyl)butanoic acid]	poorly absorbed

Test system: not listed separately
Assay: Prodrug in vitro metabolism, human liver S9
Assay type: in vitro ADME
Settings: Human Liver S9 (0.5 mg/mL), 2.0 μM substrate, NADPH, 37° C.
Procedure: as §1

Percent of Prodrug Remaining after 60 min. [%]	Compound
81	CC(OC(=O)NCCCP(C)(=O)O)OC(=O)C(C)C (stereo not shown) [Compound 111, 3-{[1-Isobutanoyloxyethoxy]carbonylamino}propyl Methylphosphinic Acid]
64	CP(=O)(O)CCCNC(=O)OCOC(=O)c1ccccc1 [Compound 195, 3-{[Benzoyloxymethoxy]carbonylamino}propyl Methylphosphinic Acid]

Further lines, the molecule ahead of its results:

Compound	Percent of Prodrug Remaining after 60 min. [%]
CC(OC(=O)NCCCP(C)(=O)O)OC(=O)C1CCCCC1 (stereo not shown) [Compound 114, 3-{[1-Cyclohexanoyloxyethoxy]carbonylamino}propyl Methylphosphinic Acid]	43
CC(C)C(=O)OCOC(=O)NCCCP(C)(=O)O [Compound 115, 3-{[Isobutanoyloxymethoxy]carbonylamino}propyl Methylphosphinic Acid]	57
CC(C)C(=O)OC(OC(=O)NCCCP(C)(=O)O)C(C)C (stereo not shown) [Compound 194, 3-{[1-Isobutanoyloxyisobutoxy]carbonylamino}propyl Methylphosphinic Acid]	66

Test system: not listed separately
Assay: Caco-2 homogenate S9 stability
Assay type: in vitro ADME
Settings: Caco-2 S9 (0.5 mg protein per mL), 5 μM prodrug, 37° C.
Procedure: Caco-2 Homogenate S9 Stability: Caco-2 cells were grown for 21 days prior to harvesting. Culture medium was removed and cell monolayers were rinsed and scraped off into ice-cold 10 mM sodium phosphate/0.15 M potassium chloride, pH 7.4. Cells were lysed by sonication at 4° C. using a probe sonicator. Lysed cells were then transferred into 1.5 mL centrifuge vials and centrifuged at 9000 g for 20 min at 4° C. The resulting supernatant (Caco-2 cell homogenate S9 fraction) was aliquoted into 0.5 mL vials and stored at −80° C. until used.
For stability studies, prodrug (5 μM) was incubated in Caco-2 homogenate S9 fraction (0.5 mg protein per mL) for 60 min at 37° C. Concentrations of intact prodrug and released parent drug were determined at zero time and 60 minutes using LC/MS/MS.

Percent of Prodrug Remaining after 60 min. [%]	Compound
82	CC(OC(=O)NCCCP(C)(=O)O)OC(=O)C(C)C (stereo not shown) [Compound 111, 3-{[1-Isobutanoyloxyethoxy]carbonylamino}propyl Methylphosphinic Acid]
91	CP(=O)(O)CCCNC(=O)OCOC(=O)c1ccccc1 [Compound 195, 3-{[Benzoyloxymethoxy]carbonylamino}propyl Methylphosphinic Acid]

Further lines, the molecule ahead of its results:

Compound	Percent of Prodrug Remaining after 60 min. [%]
CC(OC(=O)NCCCP(C)(=O)O)OC(=O)C1CCCCC1 (stereo not shown) [Compound 114, 3-{[1-Cyclohexanoyloxyethoxy]carbonylamino}propyl Methylphosphinic Acid]	82
CC(C)C(=O)OCOC(=O)NCCCP(C)(=O)O [Compound 115, 3-{[Isobutanoyloxymethoxy]carbonylamino}propyl Methylphosphinic Acid]	20
CC(C)C(=O)OC(OC(=O)NCCCP(C)(=O)O)C(C)C (stereo not shown) [Compound 194, 3-{[1-Isobutanoyloxyisobutoxy]carbonylamino}propyl Methylphosphinic Acid]	71

Test system: not listed separately
Assay: Prodrug in vitro metabolism, rat liver S9
Assay type: in vitro ADME
Settings: Rat Liver S9 (0.5 mg/mL), 2.0 μM substrate, NADPH, 37° C.
Procedure: as §1

Percent of Prodrug Remaining after 60 min. [%]	Compound
82	CC(OC(=O)NCCCP(C)(=O)O)OC(=O)C(C)C (stereo not shown) [Compound 111, 3-{[1-Isobutanoyloxyethoxy]carbonylamino}propyl Methylphosphinic Acid]
85	CP(=O)(O)CCCNC(=O)OCOC(=O)c1ccccc1 [Compound 195, 3-{[Benzoyloxymethoxy]carbonylamino}propyl Methylphosphinic Acid]

The remaining lines, values behind:

Compound	Percent of Prodrug Remaining after 60 min. [%]
CC(OC(=O)NCCCP(C)(=O)O)OC(=O)C1CCCCC1 (stereo not shown) [Compound 114, 3-{[1-Cyclohexanoyloxyethoxy]carbonylamino}propyl Methylphosphinic Acid]	51
CC(C)C(=O)OCOC(=O)NCCCP(C)(=O)O [Compound 115, 3-{[Isobutanoyloxymethoxy]carbonylamino}propyl Methylphosphinic Acid]	67
CC(C)C(=O)OC(OC(=O)NCCCP(C)(=O)O)C(C)C (stereo not shown) [Compound 194, 3-{[1-Isobutanoyloxyisobutoxy]carbonylamino}propyl Methylphosphinic Acid]	63

From patent US7935686B2, “Acyloxyalkyl carbamate prodrugs, methods of synthesis, and use” (XenoPort, Inc., priority 2004, dated 2011)
